In PubChem BioAssay AID1259407 (Chemical Carcinogenesis Research Information System (CCRIS), 2018) one finds mutagenic call data, which are given here for six compounds.

This data set relates to CCRIS mutagenicity, Ames/micronucleus/aberration tests. Kind of data set: CCRIS mutagenicity studies.
The mark [1] stands for this setting: Test System: AMES SALMONELLA TYPHIMURIUM, Strain/Indicator: TA98, Metabolic Activation: NONE, Method: PREINCUBATION
[2] abbreviates: Test System: AMES SALMONELLA TYPHIMURIUM, Strain/Indicator: TA100, Metabolic Activation: NONE, Method: PREINCUBATION
Where [3] appears, read: Test System: AMES SALMONELLA TYPHIMURIUM, Strain/Indicator: TA1535, Metabolic Activation: NONE, Method: PREINCUBATION
Where [4] appears, read: Test System: AMES SALMONELLA TYPHIMURIUM, Strain/Indicator: TA1537, Metabolic Activation: NONE, Method: PREINCUBATION
[5] abbreviates: Test System: AMES SALMONELLA TYPHIMURIUM, Strain/Indicator: TA98, Metabolic Activation: NONE, Method: STANDARD PLATE.
The mark [6] stands for this setting: Test System: AMES SALMONELLA TYPHIMURIUM, Strain/Indicator: TA98, Metabolic Activation: RAT, LIVER, S-9, AROCLOR 1254 (10%), Method: PREINCUBATION
[7] abbreviates: Test System: AMES SALMONELLA TYPHIMURIUM, Strain/Indicator: TA1535, Metabolic Activation: HAMSTER, LIVER, S-9, AROCLOR 1254 (10%), Method: PREINCUBATION
The mark [8] stands for this setting: Test System: AMES SALMONELLA TYPHIMURIUM, Strain/Indicator: TA1535, Metabolic Activation: RAT, LIVER, S-9, AROCLOR 1254 (10%), Method: PREINCUBATION
Setting [9] is: Test System: AMES SALMONELLA TYPHIMURIUM, Strain/Indicator: TA1537, Metabolic Activation: HAMSTER, LIVER, S-9, AROCLOR 1254 (10%), Method: PREINCUBATION
The mark [10] stands for this setting: Test System: AMES SALMONELLA TYPHIMURIUM, Strain/Indicator: TA1537, Metabolic Activation: RAT, LIVER, S-9, AROCLOR 1254 (10%), Method: PREINCUBATION

Molecules are shown by their SMILES. Calls of active or inactive are those of the source. No rule for the calls is given here.

Regarding `[Cl][V]([Cl])[Cl]`, the mutagenic call under setting [1] was “inactive; negative”; the mutagenic call (Test System: AMES SALMONELLA TYPHIMURIUM, Strain/Indicator: TA98, Metabolic Activation: RAT LIVER S-9, PHENOBARBITAL AND BETA-NAPHTHOFLAVONE, Method: PREINCUBATION) is “inactive; negative”; the mutagenic call under setting [2] is “inactive; negative”; the mutagenic call (Test System: AMES SALMONELLA TYPHIMURIUM, Strain/Indicator: TA100, Metabolic Activation: RAT LIVER S-9, PHENOBARBITAL AND BETA-NAPHTHOFLAVONE, Method: PREINCUBATION) was “inactive; negative”; the mutagenic call under setting [3] is “inactive; negative”; the mutagenic call (Test System: AMES SALMONELLA TYPHIMURIUM, Strain/Indicator: TA1535, Metabolic Activation: RAT LIVER S-9, PHENOBARBITAL AND BETA-NAPHTHOFLAVONE, Method: PREINCUBATION) was “inactive; negative”. Further, the mutagenic call is, setting by setting: under setting [4], “inactive; negative”; (Test System: AMES SALMONELLA TYPHIMURIUM, Strain/Indicator: TA1537, Metabolic Activation: RAT LIVER S-9, PHENOBARBITAL AND BETA-NAPHTHOFLAVONE, Method: PREINCUBATION) “inactive; negative”; (Test System: AMES SALMONELLA TYPHIMURIUM, Strain/Indicator: TA1538, Metabolic Activation: NONE, Method: PREINCUBATION) “inactive; negative”; (Test System: AMES SALMONELLA TYPHIMURIUM, Strain/Indicator: TA1538, Metabolic Activation: RAT LIVER S-9, PHENOBARBITAL AND BETA-NAPHTHOFLAVONE, Method: PREINCUBATION) “inactive; negative”; (Test System: E.COLI, Strain/Indicator: WP2UVRA, Metabolic Activation: NONE, Method: PREINCUBATION) “inactive; negative”; (Test System: E.COLI, Strain/Indicator: WP2UVRA, Metabolic Activation: RAT LIVER S-9, PHENOBARBITAL AND BETA-NAPHTHOFLAVONE, Method: PREINCUBATION) “inactive; negative”.

As to `Cc1ccc2nc3c4c(ccc3c(C)c2c1)[C@H](O)[C@@H](O)C=C4`, the mutagenic call (Test System: AMES SALMONELLA TYPHIMURIUM, Strain/Indicator: TA100, Metabolic Activation: RAT, LIVER, S-9, AROCLOR 1254, Method: STANDARD PLATE) was “active; positive”.

Regarding `CC(=O)c1cc(C(C)(C)C)cc2c1CCC2(C)C`, the mutagenic call (Test System: AMES SALMONELLA TYPHIMURIUM, Strain/Indicator: TA97, Metabolic Activation: NONE, Method: STANDARD PLATE) was “inactive; negative”; the mutagenic call (Test System: AMES SALMONELLA TYPHIMURIUM, Strain/Indicator: TA97, Metabolic Activation: RAT LIVER S-9, AROCLOR 1254, Method: STANDARD PLATE) is “inactive; negative”; the mutagenic call under setting [5] was “inactive; negative”; the mutagenic call (Test System: AMES SALMONELLA TYPHIMURIUM, Strain/Indicator: TA98, Metabolic Activation: RAT LIVER S-9, AROCLOR 1254, Method: STANDARD PLATE) is “inactive; negative”; the mutagenic call (Test System: AMES SALMONELLA TYPHIMURIUM, Strain/Indicator: TA100, Metabolic Activation: NONE, Method: STANDARD PLATE) was “inactive; negative”; the mutagenic call (Test System: AMES SALMONELLA TYPHIMURIUM, Strain/Indicator: TA100, Metabolic Activation: RAT LIVER S-9, AROCLOR 1254, Method: STANDARD PLATE) is “inactive; negative”. In addition, the mutagenic call is “inactive; negative” (Test System: AMES SALMONELLA TYPHIMURIUM, Strain/Indicator: TA102, Metabolic Activation: NONE, Method: STANDARD PLATE) and “inactive; negative” (Test System: AMES SALMONELLA TYPHIMURIUM, Strain/Indicator: TA102, Metabolic Activation: RAT LIVER S-9, AROCLOR 1254, Method: STANDARD PLATE).

`C[O+](C)C.[Cl][Sb-]([Cl])([Cl])([Cl])([Cl])[Cl]`: the mutagenic call reads like this: under setting [1], “inactive; negative”; under setting [6], “inactive; negative”; under setting [2], “inactive; negative”; under setting [7], “inactive; negative”; under setting [3], “inactive; negative”; under setting [8], “inactive; negative”. The mutagenic call runs as follows: under setting [9], “inactive; negative”; under setting [4], “inactive; negative”; under setting [10], “inactive; negative”; (Test System: MOUSE LYMPHOMA, Strain/Indicator: L5178Y (TK+/TK-), Metabolic Activation: RAT, LIVER, S-9, AROCLOR 1254, Method: SUSPENSION/PLATE) “active; positive. reevaluation of results: positive”; (Test System: Mouse lymphoma, Strain/Indicator: L5178Y (tk+/tk-), Metabolic Activation: None, Method: Suspension/plate) “inactive; negative”.

With `C=CC(=O)OCC(C)C`, the mutagenic call (Test System: AMES SALMONELLA TYPHIMURIUM, Strain/Indicator: TA98, Metabolic Activation: HAMSTER, LIVER, S-9, AROCLOR 1254 (10%), Method: PREINCUBATION) is “inactive; negative”; the mutagenic call under setting [1] was “inactive; negative”; the mutagenic call under setting [6] is “inactive; negative”; the mutagenic call (Test System: AMES SALMONELLA TYPHIMURIUM, Strain/Indicator: TA100, Metabolic Activation: HAMSTER, LIVER, S-9, AROCLOR 1254 (10%), Method: PREINCUBATION) is “inactive; negative”; the mutagenic call under setting [2] was “inactive; negative”; the mutagenic call (Test System: AMES SALMONELLA TYPHIMURIUM, Strain/Indicator: TA100, Metabolic Activation: RAT, LIVER, S-9, AROCLOR 1254 (10%), Method: PREINCUBATION) was “inactive; negative”. The mutagenic call runs as follows: under setting [7], “inactive; negative”; under setting [3], “inactive; negative”; under setting [8], “inactive; negative”; under setting [9], “inactive; negative”; under setting [4], “inactive; negative”; under setting [10], “inactive; negative”.

Take `O=c1ccc2ccc3occc3c2o1`: the mutagenic call is, setting by setting: under setting [5], “inactive; negative”; (Test System: AMES SALMONELLA TYPHIMURIUM, Strain/Indicator: TA98, Metabolic Activation: RAT, LIVER, S-9, PHENOBARBITAL, Method: STANDARD PLATE) “inactive; negative”.
